According to article PMC12074795, “Synthesis and biological evaluation of esterified anti-inflammatory drugs with ethylene glycol linkers: cytotoxicity, anti-inflammatory and antioxidant properties” (Royal Society Open Science, 2025):
Like-named read-outs stand apart in the source and are kept apart here.

Tests used:
[1] = ABTS radical cation scavenging (decolorization) test; type: biochemical; settings: 734 nm, 30 min
Procedure: The in vitro antioxidant ability of the compounds synthesized in this work was evaluated using three different assays, including (i) the ABTS radical cation reduction-decolorization test, which uses the technique of Khan et al. consisting of the reduction of the cation radical by an antioxidant through the discoloration measured by absorption at the wavelength of 734 nm; (ii) interaction with the stable free radical DPPH, based on Bassene’s method, in which the scavenging of DPPH radicals is carried out by a colorimetric method consisting of the reduction of the DPPH radical, determined by its absorption at a wavelength of 517 nm; and (iii) the FRAP test according to the protocol of Path Canada, based on the ability of a substance to reduce Fe^3+ ions to Fe^2+ ions, which, in the presence of 1,10-phenanthroline, form a red-orange complex whose optical density can be measured at 505 nm.
The modified technique by Khan et al. was used to scavenge ABTS^+• cation radicals through a discoloration test. In this test, potassium permanganate (KMnO4) or potassium persulphate (K2S2O8) reacts with ABTS to generate a blue-green ABTS^+• radical. Antioxidants reduce this radical, leading to a measurable colour change at 734 nm, proportional to the antioxidant concentration. The antioxidant capacity is assessed by comparing the intensity reduction of ABTS colour with that of a reference antioxidant, gallic acid. Stock and dilute solutions of synthetic compounds were prepared as detailed in §3.2.5.1. Diluted concentrations were (50, 25, 12.5, 6.25, 3.125, 1.5625 and 0.78125)/Mi in mM. The ABTS solution was obtained by mixing ABTS with K2S2O8, producing an intense blue colour. The ABTS^+• radical was generated by combining equal volumes of a 4.9 mM K2S2O8 solution and a 7 mM ABTS stock solution, stored in the dark at room temperature for 15 h before use. The 7 mM ABTS stock was then diluted 20 times with distilled water. A total of 25 µl of each dilution was added to wells along with 75 µl of 0.175 mM ABTS+ solution. After 30 min of incubation in the dark at room temperature, optical densities were measured at 734 nm. Negative controls contained the ABTS reagent without synthesized compounds, while positive controls used gallic acid at the same final concentrations as the compounds. Compounds were also tested alone to assess fluorescence. The reduction of ABTS results in a blue discoloration, with lower absorbance indicating higher antioxidant activity.
The percentages of scavenging or 50% reduction were calculated using gallic acid as a standard for 100% reduction. The concentration of radical scavengers needed to neutralize 50% of free radicals, referred to as SC50, was determined using GraphPad Prism 8.0.1 software (244).

[2] = tested on: nitric oxide production by macrophages activated with Saccharomyces cerevisiae; assay: Inhibition of nitric oxide production by stimulated macrophages (Griess); type: cell-based, mouse
Procedure: Second, the anti-inflammatory activity of these compounds at a maximum concentration of 0.22 mM was evaluated by assessing their ability to inhibit the synthesis of NO (figure 2).
Peritoneal macrophages were isolated from four eight-week-old, 25 g Wistar mice by intraperitoneal injection of 0.5 ml of 2% starch solution (inflammatory agent) to stimulate their production. Four days later, the animals were sacrificed, and 5 ml of phosphate buffered saline (PBS) buffer (0.1 M, pH 7.4) was injected into their peritoneal cavity with a syringe. After massage of the peritoneal cavity, the injected buffer was slowly aspirated through a small abdominal incision. The resulting solution containing macrophages was transferred to 15 ml Falcon tubes and kept in ice. The fluid obtained was then centrifuged (1620 g, 4°C and 10 min), and the supernatant was removed. The erythrocytes were removed by osmotic shock. The cells were suspended in 1 ml hypotonic 0.05 M NaCl solution for 1 min. Isotonicity was then restored by adding 1 ml of 0.25 M NaCl. The mixture was centrifuged (1620 g, 4°C and 10 min) and the resulting pellet was suspended in 2 ml of Dulbecco's modified eagle medium (DMEM) (containing 0.2% streptomycin and penicillin, 0.4 g l^−1 bovine serum albumin and 3.7 g l^−1 NaHCO3 in PBS and filtered with 0.22 µm Millipore filters).
In the 96-well plate, 150 µl of a cell suspension (10^4 cells per well) were distributed in different wells. In the test and positive control wells, 50 µl of Saccharomycces cerevisiae (250 µg ml^–1) was added to stimulate the production of pro-inflammatory cytokines. Meanwhile 50 µl of DMEM was added in the negative control wells. The microplate was incubated at 37°C (5% CO2) for 1 h, then 50 µl of solution of compounds or baicalin at different concentrations (0.241 × 10^–3, 2.23 × 10^–3, 22.4 × 10^–3, 220 × 10^–3 and 2410 × 10^–3 mM) were added to the test wells and 50 µl DMEM to the positive (cells activated with Saccharomyces cerevisiae) and negative (inactivated cells) control wells. After 3 h of incubation at 37°C (5% CO2), the cell supernatants were used for NO [41].
A total of 100 µl of the previously obtained cell supernatants were mixed with 100 µl of Griess reagent (1% sulphanylamide, 0.1% naphthyl ethylenediamine dihydrochloride in 2.5% v/v phosphoric acid). The mixture was incubated for 10 min at room temperature and the absorbance is read at 550 nm. The amount of nitrite was measured using the standard sodium […] curve. The percentage inhibition of nitric oxide synthesis was calculated using the following formula:
%inhibition=[(ODcontrol−ODassay/ODcontrol]×100).

[3] = first replicate, read-out: ABTS SC50(1)
[4] = mean of duplicate, read-out: ABTS mean SC50
[5] = second replicate, read-out: ABTS SC50(2)
[6] = Mus musculus, Macrophage, 3 h, peritoneal macrophages activated with Saccharomyces cerevisiae, 3 h incubation, Griess reagent, read-out: IC50 of NO inhibition assay
[7] = Mus musculus, Macrophage, classified according to the IC50 values of table 1, read-out: anti-inflammatory activity (class by IC50 of NO inhibition)
[8] = peritoneal macrophages activated with Saccharomyces cerevisiae, 3 h incubation, Griess reagent, read-out: IC50 of NO inhibition assay

Structure (SMILES) | EC50 [1, 3] | EC50 [1, 4] | EC50 [1, 5] | IC50 [2, 6] | IC50 [2, 7] | IC50 [2, 8]
CC(C)Cc1ccc(C(C)C(=O)OCCO)cc1 (stereo not shown) [Compound 3, 2-hydroxyethyl 2-(4-isobutylphenyl)propanoate] | 3700 µM | 3900 µM | 4110 µM |  | < 1000 µM | 
CCCCCCCCCCCC(=O)OCCOC(=O)C(C)c1ccc(CC(C)C)cc1 (stereo not shown) [Compound 5a, 2-((2-(4-isobutylphenyl)propanoyl)oxy)ethyl dodecanoate] | 2770 µM | 2790 µM | 2810 µM | ≤ 50 µM | < 1000 µM | 50 µM
O=C(O)/C=C/c1ccccc1 [Compound 11, cinnamic acid, reference compound] | 5830 µM | 5910 µM | 5980 µM | 340 µM |  | 
O=C(/C=C/c1ccccc1)OCCOC(=O)c1ccccc1O [Compound 12, (E)-2-(cinnamoyloxy)ethyl 2-hydroxybenzoate] | 3360 µM | 3470 µM | 3600 µM | 170 µM |  | 
CCCCCCCCCCCC(=O)OCCOC(=O)c1ccccc1O [DEW4a] | 3240 µM | 3250 µM | 3300 µM | > 1000 µM |  | 1360 µM

Stronger by EC50 [1, 3], values ahead:

EC50 [1, 3] | EC50 [1, 4] | EC50 [1, 5] | IC50 [2, 6] | IC50 [2, 7] | IC50 [2, 8] | Structure (SMILES)
210 µM | 200 µM | 200 µM | 330 µM |  |  | CC(C)Cc1ccc(C(C)C(=O)O)cc1 (stereo not shown) [Compound 1, ibuprofen, reference compound]
1670 µM | 1700 µM | 1730 µM | 570 µM | < 1000 µM |  | CC(C)Cc1ccc(C(=O)OCCOC(=O)C(C)c2ccc(CC(C)C)cc2)cc1 (stereo not shown) [Compound 2, 2-((2-(4-isobutylphenyl)propanoyl)oxy)ethyl 4-isobutylbenzoate]
210 µM | 210 µM | 210 µM | 50 µM |  |  | O=C(OCCO)c1ccccc1O [Compound 7, 2-hydroxyethyl 2-hydroxybenzoate]
210 µM | 200 µM | 200 µM | 900 µM |  |  | O=C(OCCOC(=O)c1ccccc1O)c1ccccc1O [Compound 13, Ethane-1,2-diyl bis(2-hydroxybenzoate)]
180 µM | 180 µM | 180 µM | ≤ 50 µM | < 1000 µM | 50 µM | CC(C)Cc1ccc(C(C)C(=O)OCCOC(=O)C=Cc2ccccc2)cc1 (stereo not shown) [Compound 14, 2-((2-(4-isobutylphenyl)propanoyl)oxy)ethyl cinnamate]
